Test results from patent US5298502A, “Method and composition for photodynamic treatment and detection of tumors” (priority 1991, dated 1994).

What was measured:
[1] = tested on: enzymatic conversion of Proto IX to magnesium Proto IX; assay: Conversion of Proto IX to magnesium Proto IX in chloroplast suspension; type: biochemical, Cucumber (Cucumis sativus L.); details: 10 μm AFM, in the presence of ATP
cabbage loopers = assay: Insecticidal test against cabbage loopers; details: in vivo
[2] = molecular target: Protoporphyrinogen Oxidase; assay: Protoporphyrinogen oxidase assay using isolated enzyme; type: biochemical, Peas (Pisum sativum var. Little Marvel); details: isolated pea etioplast enzyme
Protocol: Plant Material and Homogenization: Peas (Pisum sativum var. Little Marvel) germinated at 20° C. in a dark growth chamber ten days. Plants were illuminated for one hour per day, which allowed for significant leaf expansion while minimizing chlorophyll synthesis. Leaves were pale yellow-green in color.
The leaves were then homogenized in 500 mL of grinding media consisting of 0.5 M mannitol, 10 mM HEPES, 20 mM TES, 1 mM EDTA, 1 mM MgCl2, 5 mM cysteine, and 0.2 BSA, pH 7.7. The brei was then passed through four layers of cheesecloth, then through a 43-micron nylon mesh. The hemogenate was then centrifuged at 4000 g for 3 minutes. The resultant pellet was utilized for plastid isolation.
Etioplast Isolation and Purification: The pellet (plastid fraction) was resuspended in 40 mL of assay media (grinding media minus cysteine and containing 1 mM DTE and 1% ESA) and centrifuged at 150 g to remove cellular debris. The resultant supernatant was centrifuged at 4000 g, and the resuspended pellets were overlaid on 40% Percoll. […]
Protein content was determined utilizing the BioRad method. […]
Purification Utilizing DEAE Chromatography: A 0.75 mL volume of plastid-solubilized-enzyme preparation was loaded onto a Waters Protein-Pak DEAE-5PW column (8 mm×7.5 cm) equilibrated with Elution Buffer. […] Peaks were detected using a Waters 494 UV detector at 260 nm, sensitivity:1AU. […]

mosquito larvae = assay: Insecticidal test against mosquito larvae; details: in vivo
HeLa cells [3] = assay: Growth inhibition and Proto IX accumulation in HeLa cells (Example 2); type: cell-based, human; details: 100 μM agent
Protocol: HeLa cells, in logarithmic growth phase having been cultured for 6 days in six one-liter Falcon tissue culture flasks at 37° C.), were washed in phosphate buffered saline (PBS). A 0.25% solution of trypsin in PBS was added, and, after several minutes, the cells were gently removed and placed into 110 mL of a 25 mM solution of Hepes in Minimum Essential Medium (MEM), supplemented with 10% v/v inactivated calf serum, 1.1 mL of a 200 mM solution of glutamine in 0.85% saline solution, and 11,000 units of penicillin/11,000 mcg streptomycin.
Aliquots (5.0 mL each) of the resuspended cell culture were placed into 50 mL Falcon tissue culture flasks, with or without herbicide, and incubated in the dark at 37° C. for 4 days, the herbicide being added in dilute acetone solution as in Example 1. Acetone was also added to the controls to provide a concentration of acetone of 0.2% v/v therein. The amount of herbicide was such as to provide the concentrations specified in Table 2 below.
Extraction: The media from each of the flasks were placed in glass round bottom tubes, while the cells adhering to the bottom of the flasks were loosened by the addition of 0.5 mL of a 0.25% solution of trypsin in PBS, and after several minutes at 37° C., then washed from the flasks and recombined with their media. Aliquots of 100 μL were then removed from each cell suspension to determine cell density. The remaining 5.4 mL of cell suspension was then sonified for 30 minutes to disrupt the cells.
Ten mL of basic acetone (90% acetone:10% 0.1 N NH4 OH) was then added to each tube, and the tubes were centrifuged to remove protein and cell debris. Five mL of water was added to the supernatant, followed by 0.5 mL of a saturated aqueous solution of NaCl. The pH was then adjusted to 6.8 by the dropwise addition of 2 M KH2 PO4. The aqueous acetone extract was then loaded onto a C8 Baker Prep column. The columns were dried and then washed with 2 mL of water. The tetrapyrroles were eluted with 3 mL of 90/10 CH3 OH/H2 O. As in Example 1, all these extraction procedures were carried out substantially entirely under non-protoporphrin IX-exciting light (e.g. green light) or in the dark (e.g. in opaque covered containers). The fluorescence of the extracts was then determined on a SPEX spectrofluorometer. Protoporphyrin IX ("Proto IX") accumulation was quantified utilizing predetermined extinction coefficients.

HeLa cells [4] = assay: Tetrapyrrole accumulation in treated HeLa cells (Example 1); type: cell-based, human; details: 100 μM agent, 3 days in the dark
Protocol: HeLa cells (a human tumor cell line commonly employed for tumor research and obtained from the American Type Culture Collection), in logarithmic growth phase (having been cultured at 37° C. for five days in one-liter Falcon tissue culture flasks), were washed in phosphate buffered saline (PBS). A 0.25% solution of trypsin in PBS (2 mL) was added, and, after several minutes, the cells were gently removed from the flask and placed into 110 mL of a 25 mM solution of Hepes in Minimum Essential Medium (MEM) supplemented with 10% v/v inactivated calf serum, 1.1 mL of a 200 mM solution of glutamine in 0.85% saline solution, and 11,000 units of penicillin/11,000 mcg streptomycin.
Then, 5.0 mL aliquots of the resulting resuspended cell culture were each placed into a 50 mL Falcon tissue culture flask and (except for the control) mixed with the treating agent. The aliquots were then incubated in the dark at 37° C. for three days. The cells were then removed and extracted under green light in the following manner:
Cells were removed from the bottom of the flask with the addition of 0.8 mL of a 0.25% solution of trypsin in PBS. After 1 hour of incubation in the dark, cells and medium were removed from the flasks, placed into round bottom centrifuge tubes, and then subjected to two rounds of freeze-thaw conditions to disrupt the cells and allow for extraction.
Ten mL of basic acetone (90% acetone:10% of 0.1 N NH4 OH) was then added to each tube, and the tubes were centrifuged to remove protein and cell debris. Five mL of water was added to the supernatant, followed by 0.5 mL of a saturated aqueous solution of NaCl. The pH was then adjusted to 6.8 by the dropwise addition of 2 M KH2 PO4. The aqueous acetone extract was then loaded onto a C8 Baker Prep column. The columns were dried and then washed with 2 mL of water. The tetrapyrroles were eluted with 2×1.5 mL volumes of 90/10 CH3 OH/H2 O. Extracts were then quantified on a spectrofluorometer.
Agent A was supplied as a filter-sterilized 250 mM solution in water, pH 6.5. Agents B, C, D, and E were supplied as 50 mM solutions in acetone. Acetone was also added to the control to provide a concentration of 0.2% v/v therein. The amounts of the agents added to the cell cultures were such as to give the concentrations specified in the Table 1 below. The amounts of the tetrapyrrole protoporphyrin IX ("Proto IX") produced are shown in that Table.

human erythrocytes = details: introduced into human erythrocytes; cited from earlier work
tumors = details: injected into animals; cited from earlier work
murine leukemia cells = details: cited from earlier work

Compound	effect on enzymatic conversion of Proto IX to magnesium Proto IX [1]	activity against cabbage loopers (cabbage loopers)	pI50 (negative log of the I50 Molarity) [2]	IC50 ([2]; read-out: I50) [nM]	activity against mosquito larvae (mosquito larvae)	Amount of Proto IX (HeLa cells [3]; average amount per 10^6 cells) [pmol]	inhibition at 100 µM (HeLa cells [3]; Homo sapiens, HeLa, 96 h, 4 days in the dark) [%]	Amount of Proto IX (HeLa cells [4]) [pmol]	Fluorescence Emission cps 400/630 (HeLa cells [4]) [cps]	photosensitizing effect (human erythrocytes)	protoporphyrin in the tumors after injection (tumors)	photosensitizing potency (murine leukemia cells)
COC(=O)c1cc(Oc2ccc(C(F)(F)F)cc2Cl)ccc1[N+](=O)[O-] [Agent B, Acifluorfen-methyl]	no inhibiting effect	active	7.1	80	active	5.20	99	1.3	12921	–	–	–
C=CC1=C(C)c2cc3[nH]c(cc4nc(cc5[nH]c(cc1n2)c(C)c5CCC(=O)O)C(CCC(=O)O)=C4C)c(C)c3C=C [protoporphyrin]	–	–	–	–	–	–	–	–	–	marked photosensitizing effect	no detectable protoporphyrin in the tumors	most potent photosensitizing agent of those tested
